pIC50: −log10 of the molar value. ≈ marks a conversion by molar mass, not a printed value.
Key:
[1] = system: Escherichia coli DH5[alpha]; conditions: dose 32.0 mg/L
Escherichia coli = assay: microbe, parasite or virus in culture; conditions: DH5[alpha]
Description: Antibacterial activity against Escherichia coli DH5alpha assessed as MIC of meropenem at 32 mg/L by CLSI based broth microdilution method (Rvb < 0.25 mg/L)

[2] = system: Escherichia coli DH5[alpha]; assay: Inhibition of Escherichia coli DH5alpha NDM-1 assessed as MIC of meropenem at 8 mg/L by CLSI based microdilution method
[3] = Inhibition of recombinant N-terminal His/MBP-tagged NDM-1 (unknown origin) expressed in Escherichia coli BL21 (DE3) measured immediately by spectrophotometry

| SMILES | MIC [1] [µg/mL] | MIC (Escherichia coli) [µg/mL] | MIC [2] [µg/mL] | pIC50 [3] |
| --- | --- | --- | --- | --- |
| O=C(O)CN(CCN(CC(=O)O)CC(=O)O)CC(=O)O [EDETIC ACID] | < 0.25 | < 0.25 | < 0.25 | – |
| O=C(O)[C@H]1CCCN1C(=O)C(CS)CS | – | – | – | 4.12 |
| C[C@H](CS)C(=O)N1CCC(CC(=O)O)CC1 | – | – | – | 4.70 |
| C[C@H](CS)C(=O)N1CCC[C@H](C(=O)O)C1 | – | – | – | 4.55 |
| C[C@H](CS)C(=O)N1CCCCC[C@@H]1C(=O)O | – | – | – | 4.69 |
| C[C@H](CS)C(=O)N1Cc2ccccc2C[C@@H]1C(=O)O | – | – | – | < 3.52 |
| C[C@H](CS)C(=O)N1CCCC[C@@H]1C(=O)O | 2 (≈ 8.65 µM) | – | 4 | 5.16 |
| C[C@H](CS)C(=O)N1CCC(CC(N)=O)CC1 | – | – | – | 4.55 |
| C[C@H](CS)C(=O)N1CCC[C@@H]1C(=O)O [D-CAPTOPRIL] | 4 (≈ 18.4 µM) | – | – | 4.66 |
| C[C@H](CS)C(=O)N1CCC(C(N)=O)CC1 | – | – | – | 4.95 |
| C[C@H](CS)C(=O)N1CCC(C(=O)O)CC1 | 2 (≈ 8.65 µM) | – | 4 | 5.31 |
| C[C@H](CS)C(=O)N1CCc2ccccc2[C@@H]1C(=O)O | 4 (≈ 14.3 µM) | – | 8 | 5.34 |

— ChEMBL document CHEMBL4673350 (Bioorg Med Chem, 2021)
